This passage reports Ki and MIC results from publication PMC9940851, “Seleno Containing Compounds as Potent and Selective Antifungal Agents” (ACS Infectious Diseases, 2022).

In brackets after ≈: the same amount, converted by molar mass. Some results are limits rather than exact numbers.

The target in one test is T1, MgCA (Malassezia globosa, UniProt A8Q1N3).
T1 construct: gene MGL_1814
T1 sequence (A8Q1N3 1-241): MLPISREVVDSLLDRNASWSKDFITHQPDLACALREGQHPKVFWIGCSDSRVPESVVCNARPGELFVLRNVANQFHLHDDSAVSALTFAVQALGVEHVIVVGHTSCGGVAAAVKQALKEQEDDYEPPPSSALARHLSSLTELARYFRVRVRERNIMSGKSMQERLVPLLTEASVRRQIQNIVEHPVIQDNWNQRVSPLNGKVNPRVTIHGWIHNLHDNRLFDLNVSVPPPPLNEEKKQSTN
Put plainly: stopped-flow CO2 hydrase assay. The format is biochemical. Summed up:
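Stopped-flow recording over 10–100 s followed CO2 hydration (1.7–17 mM CO2) in 20 mM Hepes pH 7.4 plus 20 mM Na2SO4, using 0.2 mM phenol red at 557 nm, after recombinant carbonic anhydrase (5–12 nM) had been preincubated with inhibitor for 15 min at room temperature. Initial rates, corrected for uncatalysed rates, came from at least six traces, and at least three determinations were averaged. Ki was calculated by nonlinear least-squares fitting with the Cheng-Prusoff equation.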

Test [1] deals with T2, M. pachydermatis DSMZ 6172.
T2 construct: DSMZ 6172 (CDC 16334)
The test is described as follows: microbe, parasite or virus in culture. Further details: broth microdilution MIC, M. pachydermatis and Candida, 35 °C. The following applies: Malassezia pachydermatis, DSMZ6172. As to the method:
(§1) Inoculum preparations for antifungal assays were performed following the CLSI guidelines for antifungal susceptibility testing of yeasts.[31] Antifungal activity was evaluated on unicellular yeasts Candida albicans ATCC 10231, Candida glabrata ATCC 90030 (DSMZ 11226), Malassezia pachydermatis CDC 16334 (DSMZ 6172), Malassezia globosa ATCC MYA 4612, and Malassezia furfur ATCC 14521. All the fungal strains were stored at −80 °C in cryovials. Then Candida spp. and Malassezia pachydermatis were reactivated in RPMI 1640 broth for 24–48 h at 35 °C. The so obtained fresh cultures were streaked onto Sabouraud dextrose agar and incubated for 24–48 h at 35 °C. Malassezia globosa and furfur were reactivated in modified RPMI 1640 broth[32] for 24–48 h at 35 °C (M. furfur) and 33 °C (M. globosa), and then the cultures were streaked onto Leeming and Notman agar (MLNA) and incubated for 48–72 h at 35 °C for M. furfur and at 33 °C for M. globosa. The fungal inoculum for the testing was prepared by suspending in phosphate buffer (PB) 10 mM pH 7 4–5 colonies of about 1 mm diameter. The fungal suspension was then adjusted to a final optical density of 0.5 McFarland standard (1–5 × 10^6 cells/mL). The compound solutions were tested in a range of concentrations from 0.01 μg/mL to 256 μg/mL, and 50 μL were then added in 96 wells microtiter plates with 50 μL of fungal inoculum and incubated for 24–48 h at 35 °C. Growth and sterility controls were performed. […] Compounds 3a, 3c, 5b, 7a–d, 9c, 11e, 11i, and 14a,b were selected as representatives of the chemical moieties synthesized prior to their screen on yeasts of biomedical relevance such as M. pachydermatis DSMZ 6172, C. albicans ATCC 10231, and C. glabrata ATCC 90030 (DSMZ 11226) strains. The clinical used drugs Ketoconazole, SeS2, and Amphotericin B were included as references (Table 1).

The next test deals with T3, M. globosa ATCC MYA 4612.
T3 construct: ATCC MYA 4612
Put plainly: microbe, parasite or virus in culture. The following applies: Malassezia globosa. As to the method:
as §1

The subject of the next test is T4, ATCC M. furfur 14521.
T4 construct: ATCC 14521
Put plainly: microbe, parasite or virus in culture. The following applies: Malassezia furfur. The protocol: as §1

The target of a further test is T5, MpaCA (Malassezia pachydermatis, UniProt A0A0M8MPA4).
T5 construct: gene Malapachy_3798
T5 sequence (A0A0M8MPA4 1-242): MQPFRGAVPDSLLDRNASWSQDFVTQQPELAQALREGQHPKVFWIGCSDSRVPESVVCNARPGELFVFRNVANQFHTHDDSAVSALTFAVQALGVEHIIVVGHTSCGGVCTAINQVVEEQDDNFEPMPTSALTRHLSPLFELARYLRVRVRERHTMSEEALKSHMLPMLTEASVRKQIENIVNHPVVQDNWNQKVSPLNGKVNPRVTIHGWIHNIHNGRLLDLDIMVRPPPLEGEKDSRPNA
Put plainly: stopped-flow CO2 hydrase assay. The format is biochemical.

For the molecule `NS(=O)(=O)c1cccc(NC(=[Se])NC(=O)c2ccc(Br)cc2F)c1` [8g, 4-Bromo-2-fluoro-N-((3-sulfamoylphenyl)carbamoselenoyl)benzamide], the Ki at MgCA came out at 3.48 µM; on MpaCA it was 65.7 µM. For the same molecule, the figures for the MIC (in test [1]; with M. globosa ATCC MYA 4612; with ATCC M. furfur 14521) were 13.3 ± 4.6 µg/mL (≈ 27.8 µM), 128 µg/mL (≈ 267 µM) and 8 µg/mL (≈ 16.7 µM), respectively.
The corresponding values for `NS(=O)(=O)c1ccc(CCNC(=[Se])NC(=O)c2ccccc2)cc1` [9a] are 0.565 µM, 73.9 µM, 1 µg/mL (≈ 2.44 µM), 32 µg/mL (≈ 78 µM) and 4 µg/mL (≈ 9.75 µM).
In the case of `CCCCCCCc1ccc(C(=O)NC(=[Se])NCCc2ccc(S(N)(=O)=O)cc2)cc1` [9b, 4-Heptyl-N-((4-sulfamoylphenethyl)carbamoselenoyl)benzamide], the Ki on MgCA is 6.39 µM; on MpaCA it was greater than 10 µM. Further, the figures for the MIC (in test [1]; in the test with M. globosa ATCC MYA 4612; with ATCC M. furfur 14521) were 1.7 ± 0.58 µg/mL (≈ 3.34 µM), 256 µg/mL (≈ 503 µM) and 1.7 ± 0.58 µg/mL (≈ 3.34 µM), respectively.
As to `NS(=O)(=O)c1ccc(CCNC(=[Se])NC(=O)c2ccc(F)cc2)cc1` [9d, 4-Fluoro-N-((4-sulfamoylphenethyl)carbamoselenoyl)benzamide], the Ki on MgCA worked out at 8 µM; on MpaCA it was 75 µM. Further, the MIC came to 1 µg/mL (≈ 2.33 µM) in test [1], 128 µg/mL (≈ 299 µM) in the test on M. globosa ATCC MYA 4612 and 2.3 ± 2.31 µg/mL (≈ 5.37 µM) in the test with ATCC M. furfur 14521.
Regarding `NS(=O)(=O)c1ccc(CCNC(=[Se])NC(=O)c2ccc(I)cc2)cc1` [9e, 4-Iodo-N-((4-sulfamoylphenethyl)carbamoselenoyl)benzamide], the results for the Ki on MgCA and on MpaCA were 1.57 µM and 83.3 µM, respectively. The values for the MIC (in test [1]; in the test on M. globosa ATCC MYA 4612; against ATCC M. furfur 14521) were 1 µg/mL (≈ 1.86 µM), 32 µg/mL (≈ 59.7 µM) and 3.3 ± 1.15 µg/mL (≈ 6.15 µM), respectively.
The corresponding values for `NS(=O)(=O)c1ccc(CCNC(=[Se])NC(=O)c2ccc(/N=N/c3ccccc3)cc2)cc1` [9f, (E)-4-(Phenyldiazenyl)-N-((4-sulfamoylphenethyl)carbamoselenoyl)benzamide] are 2.39 µM, 88.8 µM, 3.33 ± 1.15 µg/mL (≈ 6.47 µM), 8 µg/mL (≈ 15.6 µM) and 2.7 ± 1.15 µg/mL (≈ 5.25 µM).
For the molecule `O=C(NC(=[Se])Nc1ccc(S(=O)(=O)Nc2nccs2)cc1)c1ccccc1` [10a, N-((4-(N-(Thiazol-2-yl)sulfamoyl)phenyl)carbamoselenoyl)benzamide], the figures for the inhibitory constant (Ki) on MgCA and on MpaCA were 52.8 µM and 42.9 µM, respectively. The MIC turned out to be 1 µg/mL (≈ 2.15 µM) in test [1], 128 µg/mL (≈ 275 µM) in the test with M. globosa ATCC MYA 4612 and 8 µg/mL (≈ 17.2 µM) with ATCC M. furfur 14521.
The corresponding values for `O=C(NC(=[Se])Nc1ccc(S(=O)(=O)Nc2nccs2)cc1)c1cc(Br)cc(OC(F)(F)F)c1` [10b, 3-Bromo-N-((4-(N-(thiazol-2-yl)sulfamoyl)phenyl)carbamoselenoyl)-5-(trifluoromethoxy)benzamide] are 9.26 µM, 85.3 µM, 16 µg/mL (≈ 25.5 µM), 341 ± 148 µg/mL (≈ 543 µM) and 427 ± 148 µg/mL (≈ 679 µM).
In the case of `CCCCCCCc1ccc(C(=O)NC(=[Se])Nc2ccc(S(=O)(=O)Nc3nccs3)cc2)cc1` [10c, 4-Heptyl-N-((4-(N-(thiazol-2-yl)sulfamoyl)phenyl)carbamoselenoyl)benzamide], the Ki at MgCA worked out at 60.6 µM; at MpaCA, 91.9 µM. The MIC was 0.8 ± 0.29 µg/mL (≈ 1.42 µM) in test [1], greater than 256 µg/mL in the test on M. globosa ATCC MYA 4612 and 4 µg/mL (≈ 7.1 µM) in the test with ATCC M. furfur 14521.
Turning to `O=C(NC(=[Se])Nc1ccc(S(=O)(=O)Nc2nccs2)cc1)c1ccc([N+](=O)[O-])cc1` [10d, 4-Nitro-N-((4-(N-(thiazol-2-yl)sulfamoyl)phenyl)carbamoselenoyl)benzamide], the Ki at MgCA came out at 8.77 µM; on MpaCA, 92.8 µM. The MIC in test [1] turned out to be 1.8 ± 1.89 µg/mL (≈ 3.53 µM); in the test with M. globosa ATCC MYA 4612, 26.7 ± 9.2 µg/mL (≈ 52.3 µM); with ATCC M. furfur 14521, 85.3 ± 37 µg/mL (≈ 167 µM).
The corresponding values for `O=C(NC(=[Se])Nc1ccc(S(=O)(=O)Nc2nccs2)cc1)c1ccc(F)cc1` [10e, 4-Fluoro-N-((4-(N-(thiazol-2-yl)sulfamoyl)phenyl)carbamoselenoyl)benzamide] are 8.9 µM, 80.3 µM, 1 µg/mL (≈ 2.07 µM), 128 µg/mL (≈ 265 µM) and 2.3 ± 2.31 µg/mL (≈ 4.76 µM).
The corresponding values for `O=C(NC(=[Se])Nc1ccc(S(=O)(=O)Nc2nccs2)cc1)c1ccc(I)cc1` [10f, 4-Iodo-N-((4-(N-(thiazol-2-yl)sulfamoyl)phenyl)carbamoselenoyl)benzamide] are 10.2 µM, 74.3 µM, 2 µg/mL (≈ 3.38 µM), greater than 256 µg/mL and 5.3 ± 2.31 µg/mL (≈ 8.96 µM).
The corresponding values for `O=C(NC(=[Se])Nc1ccc(S(=O)(=O)Nc2nccs2)cc1)c1ccc(Cl)cc1` [10g, 4-Chloro-N-((4-(N-(thiazol-2-yl)sulfamoyl)phenyl)carbamoselenoyl)benzamide] are 36.1 µM, 66.7 µM, 1.3 ± 0.58 µg/mL (≈ 2.6 µM), greater than 256 µg/mL and 64 µg/mL (≈ 128 µM).
In the case of `NS(=O)(=O)c1ccc(O)c(NC(=[Se])NC(=O)c2ccccc2)c1` [11a], the results for the inhibition constant Ki at MgCA and on MpaCA were 4.1 µM and 13.4 µM, respectively. The results for the MIC (in test [1]; with M. globosa ATCC MYA 4612; against ATCC M. furfur 14521) were 1 µg/mL (≈ 2.51 µM), 128 µg/mL (≈ 321 µM) and 2.7 ± 1.15 µg/mL (≈ 6.78 µM), respectively.
As for `CCCCCCCc1ccc(C(=O)NC(=[Se])Nc2cc(S(N)(=O)=O)ccc2O)cc1` [11b], the Ki on MgCA was determined as 4.93 µM; at MpaCA, 78 µM. The MIC in test [1] worked out at 8 µg/mL (≈ 16.1 µM); in the test with M. globosa ATCC MYA 4612, 256 µg/mL (≈ 516 µM); in the test on ATCC M. furfur 14521, 5.3 ± 2.31 µg/mL (≈ 10.7 µM).
The corresponding values for `NS(=O)(=O)c1ccc(O)c(NC(=[Se])NC(=O)c2ccc([N+](=O)[O-])cc2)c1` [11c, N-((2-Hydroxy-5-sulfamoylphenyl)carbamoselenoyl)-4-nitrobenzamide] are 5.02 µM, 91.2 µM, 0.5 µg/mL (≈ 1.13 µM), 128 µg/mL (≈ 289 µM) and 5.3 ± 2.31 µg/mL (≈ 12 µM).
For the molecule `NS(=O)(=O)c1ccc(O)c(NC(=[Se])NC(=O)c2ccc(I)cc2)c1` [11d, N-((2-Hydroxy-5-sulfamoylphenyl)carbamoselenoyl)-4-iodobenzamide], the Ki was determined as 2.93 µM at MgCA and 7.5 µM at MpaCA. The MIC was found to be 13.3 ± 4.6 µg/mL (≈ 25.4 µM) in test [1], 128 µg/mL (≈ 244 µM) in the test on M. globosa ATCC MYA 4612 and 10.7 ± 4.62 µg/mL (≈ 20.4 µM) against ATCC M. furfur 14521.
The corresponding values for `NS(=O)(=O)c1ccc(O)c(NC(=[Se])NC(=O)c2ccc(Cl)cc2)c1` [11f, 4-Chloro-N-((2-hydroxy-5-sulfamoylphenyl)carbamoselenoyl)benzamide] are 5.13 µM, 54.2 µM, 0.5 µg/mL (≈ 1.16 µM), 256 µg/mL (≈ 592 µM) and 4 µg/mL (≈ 9.24 µM).
The corresponding values for `NS(=O)(=O)c1ccc(O)c(NC(=[Se])NC(=O)c2ccc(Br)cc2F)c1` [11g, 4-Bromo-2-fluoro-N-((2-hydroxy-5-sulfamoylphenyl)carbamoselenoyl)benzamide] are 6.01 µM, 70.9 µM, 3.33 ± 1.15 µg/mL (≈ 6.72 µM), 256 µg/mL (≈ 517 µM) and 5.3 ± 2.31 µg/mL (≈ 10.7 µM).
The matching figures for `NS(=O)(=O)c1ccc(O)c(NC(=[Se])NC(=O)c2ccc(CCl)cc2)c1` [11h, 4-(Chloromethyl)-N-((2-hydroxy-5-sulfamoylphenyl)carbamoselenoyl)benzamide]: 6.49 µM, 76.6 µM, 4 µg/mL (≈ 8.95 µM), greater than 256 µg/mL and 74.7 ± 48.9 µg/mL (≈ 167 µM).
